Experimental data reported in patent publication US8748497B2, “Optimized fluorocarbon emulsions for blood substitutes and other therapeutic uses” (Alliance Pharmaceutical Corp., priority 2006, dated 2014).

Experiment: intravascular persistence of PFOB and PFDB after 60/30% w/v PFOB/PFDB emulsion
Type: in vivo
Conditions: rats
Text: FIG. 4 represents typical data for the removal of both PFOB and PFDB. […] In general, the rate constant for PFDB removal is 20-30% less than that of PFOB.
The emulsion composition with the data shown in FIG. 4 contains a 60/30% (w/v) ratio of PFOB/PFDB stabilized by 6% w/v EYP. In this case, the rate constant for PFDB removal is 20% higher than that of PFOB. It might be assumed that in the first few hours after administration that the removal from blood is controlled by k12 (see FIG. 1). The fluorochemical composition of circulating emulsion droplets should, therefore, remain intact. How is it then that the two disperse phase components could have different rate constants? To answer this question, the composition of the intravenously administered droplets can be examined through the use of sedimentation field-flow fractionation (SdFFF) coupled with gas chromatography, thereby confirming the nature of the droplets.

rate constant for removal, less than that of PFOB (in general): 20-30%
rate constant for removal, higher than that of PFOB (in this case (FIG. 4), 60/30% w/v PFOB/PFDB, 6% w/v EYP): 20%
SMILES: FC(F)(F)C(F)(F)C(F)(F)C(F)(F)C(F)(F)C(F)(F)C(F)(F)C(F)(F)C(F)(F)C(F)(F)Br [PFDB, perfluorodecyl bromide]
